Experimental findings from patent US20160340286A1, “CLOSTRUBINS” (LEIBNIZ-INSTITUT FÜR NATURSTOFF-FORSCHUNG UND …, priority 2014, published 2016) are described below.

Usually GI50 stands for the concentration at which growth is held to half of that of the control. The low end stands for greater sensitivity of the cells, the high end for lower sensitivity of the cells. By CC50 is commonly meant the concentration at which the toxic effect on the cells reaches its halfway point.

Format in all cases: cell-based
The subject of one series is Escherichia coli. In words: standardized antibiotic assay, MIC, Ec. The following applies: for MIC: Escherichia coli (Gram-negative). As to the method: (§1) The activity and more specifically the bioactivity of the compounds according to the present invention can be assessed using appropriate assays known to those skilled in the art, e.g. in vitro or in vivo assays. For instance, the antimicrobial activity may be determined using a standardized antibiotic assay^[1], and the antiproliferative and/or cytotoxic activity may be determined via a standardized assay as described in reference.
(§2) The antibiotic activity of clostrubin A was tested using a standardized antibiotic assay^[1]. […]. A similar antimicrobial activity as against MRSA was observed against Mycobacterium smegmatis (M smegmatis), Mycobacterium aurum (M aurum), Mycobacterium vaccae (M vaccae) and Mycobacterium fortuitum (M fortuitum)—see, Table 3.

Another series concerns Bs. In words: standardized antibiotic assay, MIC, Bs. As to the method:
as §1, §2

Series [1] deals with methicillin-resistant Staphylococcus aureus (MRSA). As to the kind of experiment: standardized antibiotic assay, MIC, MRSA. As for the experimental part: as §1, §2
Series [2] has as its system vancomycin-resistant enterococci (VRE). In words: standardized antibiotic assay, MIC, VRE. Particulars: Enterococcus. As for the experimental part:
as §1, §2

The next series has as its system Mycobacterium aurum. As to the kind of experiment: anti-mycobacterial activity, MIC. Particulars: Mycolicibacterium aurum. As to the method: as §1, §2
The test system of a further series is Mycobacterium fortuitum. In words: anti-mycobacterial activity, MIC. Particulars: Mycolicibacterium fortuitum. As to the method:
as §1, §2

In another series the test system is Mycobacterium smegmatis. As to the kind of experiment: anti-mycobacterial activity, MIC. Particulars: Mycolicibacterium smegmatis. As for the experimental part:
as §1, §2

The test system of the next series is Mycobacterium vaccae. In words: anti-mycobacterial activity, MIC. The following applies: Mycolicibacterium vaccae. As to the method:
as §1, §2

The test system of a further series is HUVEC. As to the kind of experiment: antiproliferative effect, standardized assay.
Source text: as §1
(§3) Antiproliferative and cytotoxic activity of clostrubin A was tested in a standardized assay^[2].

The next series deals with K-562. As to the kind of experiment: antiproliferative effect, standardized assay. The following applies: Homo sapiens, K562.
Source text: as §1, §3

Series [3] in a line: cytotoxicity, standardized assay. Particulars: human, HeLa cells.
Source text: as §1, §3

The test system of the next series is HeLa. In words: cytotoxicity, standardized assay. Particulars: summary of Table 4 (HeLa).
Source text: as §1, §3

The subject of another series is Bacillus pumilus. As to the kind of experiment: microbe, parasite or virus in culture. The following applies: potato soft rot pathogen. As to the method: (§4) The antimicrobial activity of clostrubin A (1) and clostrubin B (2) against the serious potato pathogens Bacillus pumilus (causing potato soft rot), Clavibacter michiganensis ssp. sepedonicus (causing potato ring rot), and Streptomyces scabies (causing potato scab) was tested.

In a further series the test system is Streptomyces scabies. As to the kind of experiment: microbe, parasite or virus in culture. The following applies: Streptomyces scabiei; potato scab pathogen. As for the experimental part: as §4
Series [4] relates to Clavibacter michiganensis ssp. sepedonicus. As to the kind of experiment: activity against potato pathogens, MIC. Particulars: read-out: MIC Clavibacter michiganensis ssp. sepedonicus.

Values after ≈ are worked out from the molar mass of the structure shown. Where two headings read alike, the source gives them in different places.

`O=C(O)c1cn(C2CC2)c2cc(N3CCNCC3)c(F)cc2c1=O` [Cip, ciprofloxacin, reference compound]: the MIC against Escherichia coli came out at 0.01 µM (≈ 0.00331 µg/mL); against Bs, 0.08 µM (≈ 0.0265 µg/mL); in [1] (read-out: MIC MRSA) it was 37 µM; in series [2] (read-out: MIC VRE), 2.3 µM; with Mycobacterium aurum it was 0.3 µM (≈ 0.0994 µg/mL); in the series with Mycobacterium fortuitum, 0.6 µM (≈ 0.199 µg/mL). For the same molecule, the MIC against Mycobacterium smegmatis came to 4.71 µM (≈ 1.56 µg/mL); against Mycobacterium vaccae, 1.2 µM (≈ 0.398 µg/mL).
As to `CC(=O)c1ccc2c(c1O)c(O)c1c3c(c(O)cc(C)c32)C(=O)c2c(O)cc(C)cc2-1` [Compound 1, clostrubin A], the MIC in the series on Escherichia coli is > 60 µM; against Bs, 0.075 µM (≈ 0.0311 µg/mL); in series [1] (read-out: MIC MRSA), 0.12 µM; in series [1] (read-out: minimum inhibitory concentration (MIC) MRSA), 0.05 µg/mL; in series [2] (read-out: MIC VRE) it was 0.97 µM; in [2] (read-out: minimum inhibitory concentration (MIC) VRE) it was 0.4 µg/mL. Moreover, the MIC amounted to 0.12 µM (≈ 0.0497 µg/mL) against Mycobacterium aurum; 0.12 µM (≈ 0.0497 µg/mL) against Mycobacterium fortuitum; 0.48 µM (≈ 0.199 µg/mL) with Mycobacterium smegmatis; 0.12 µM (≈ 0.0497 µg/mL) against Mycobacterium vaccae; 0.047 µM (≈ 0.0195 µg/mL) against Bacillus pumilus; 0.0947 µM (≈ 0.0392 µg/mL) with Streptomyces scabies. Moreover, in series [4], the MIC is 0.0947 µM (≈ 0.0392 µg/mL). Further, in the series with Escherichia coli (Gram-negative organism), the “antibiotic activity against Escherichia coli (in words)” value is “ineffective”. The GI50 in the series with HUVEC (Homo sapiens, HUVEC) was 1200 nM; in the series with K-562, 2660 nM. Moreover, the “antiproliferative activity (in words)” value with HUVEC (summary of Table 4 (HUVEC, K-562)) was “moderate”. In [3], this molecule registered a CC50 of 1690 nM. Moreover, the “cytotoxic activity (in words)” value in the series on HeLa was “moderate”.
For the molecule `COCC(O)C(O)C(O)C(=O)c1c(C)cc2c(c1O)C(=O)c1c(O)cc(C)c3c1c-2c(O)c1c(O)c(C(C)=O)ccc13` (stereo not drawn) [Compound 2, clostrubin B], the MIC is 0.542 µM (≈ 0.312 µg/mL) in the series on Bacillus pumilus, 0.271 µM (≈ 0.156 µg/mL) against Streptomyces scabies and 0.542 µM (≈ 0.312 µg/mL) in series [4].
